Experimental data as given in ChEMBL document CHEMBL1649076, “Discovery of 5-chloro-N2-[(1S)-1-(5-fluoropyrimidin-2-yl)ethyl]-N4-(5-methyl-1H-pyrazol-3-yl)pyrimidine-2,4-diamine (AZD1480) as a novel inhibitor of the Jak/Stat pathway” (J Med Chem, 2011).

Tests used:
[1] = Volume of distribution at steady state in Han Wistar rat at 10 mg/kg, po and 3 mg/kg, iv; format: ADME, organism-based; conditions: in vivo, read-out: Vdss
[2] = Aqueous equilibrium solubility of the compound at pH 7.4 by HPLC-UV analysis; format: physicochemical
[3] = Observed clearance in Han Wistar rat at 10 mg/kg, po and 3 mg/kg, iv; format: ADME, organism-based; conditions: in vivo
[4] = target: T1, Tyrosine-protein kinase JAK3 (Homo sapiens, UniProt P52333); test: Inhibition of JAK3 using 5 mM of ATP
T1 sequence (P52333 whole entry): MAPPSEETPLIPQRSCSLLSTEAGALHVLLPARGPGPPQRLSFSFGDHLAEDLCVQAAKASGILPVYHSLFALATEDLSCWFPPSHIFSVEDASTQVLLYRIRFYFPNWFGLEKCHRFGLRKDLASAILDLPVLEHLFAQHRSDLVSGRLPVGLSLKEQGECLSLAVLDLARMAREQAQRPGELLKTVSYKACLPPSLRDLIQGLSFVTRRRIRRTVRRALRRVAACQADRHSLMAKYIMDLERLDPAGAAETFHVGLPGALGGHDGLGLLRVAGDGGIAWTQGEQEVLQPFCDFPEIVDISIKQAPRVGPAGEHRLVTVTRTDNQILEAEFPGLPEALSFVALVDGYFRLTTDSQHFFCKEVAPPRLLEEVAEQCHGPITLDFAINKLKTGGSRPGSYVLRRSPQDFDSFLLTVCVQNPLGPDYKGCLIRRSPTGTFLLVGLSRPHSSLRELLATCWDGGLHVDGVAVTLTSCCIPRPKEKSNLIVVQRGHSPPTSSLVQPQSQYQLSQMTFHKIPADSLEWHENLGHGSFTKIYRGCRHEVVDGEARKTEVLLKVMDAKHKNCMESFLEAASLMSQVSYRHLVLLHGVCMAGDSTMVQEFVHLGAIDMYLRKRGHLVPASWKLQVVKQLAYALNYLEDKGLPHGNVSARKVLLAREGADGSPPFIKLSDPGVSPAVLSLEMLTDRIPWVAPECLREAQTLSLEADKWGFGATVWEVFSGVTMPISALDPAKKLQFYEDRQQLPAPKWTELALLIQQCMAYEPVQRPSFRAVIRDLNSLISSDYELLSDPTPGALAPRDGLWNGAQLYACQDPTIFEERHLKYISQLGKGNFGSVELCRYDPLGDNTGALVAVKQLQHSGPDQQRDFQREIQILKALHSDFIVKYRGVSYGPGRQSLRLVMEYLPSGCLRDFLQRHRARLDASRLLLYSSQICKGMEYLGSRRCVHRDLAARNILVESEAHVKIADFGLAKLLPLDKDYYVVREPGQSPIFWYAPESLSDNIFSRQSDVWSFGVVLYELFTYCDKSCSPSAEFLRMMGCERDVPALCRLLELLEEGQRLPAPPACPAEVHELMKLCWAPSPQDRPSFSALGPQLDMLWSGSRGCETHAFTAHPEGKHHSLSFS

[5] = Octanol-water partition coefficient, log D of the compound at pH 7.4 by shake flask method; format: physicochemical
[6] = Growth inhibition of mouse BA/F3 cells expressing Tel-JAK2 kinase after 48 hrs by MTS assay; format: functional; conditions: BaF3, 48 h
[7] = Half life in Han Wistar rat at 10 mg/kg, po and 3 mg/kg, iv; format: ADME, organism-based; conditions: in vivo
[8] = test system: Liver microsomes; test: Intrinsic clearance in rat liver microsomes assessed per mg of protein at 2 uM by LCMS/MS analysis; format: ADME, Microsome
[9] = Oral bioavailability in Han Wistar rat at 10 mg/kg; format: ADME, organism-based; conditions: in vivo
[10] = target: T2, Tyrosine-protein kinase JAK2 (Homo sapiens, UniProt O60674); test: Inhibition of JAK2 using Km ATP concentration
[11] = target: T2, Tyrosine-protein kinase JAK2; test: Inhibition of JAK2 using 5 mM of ATP
[12] = Inhibition of Stat5 phosphorylation in mouse Ba/F3 cells expressing EPOR; conditions: BaF3

T2 sequence (O60674 whole entry): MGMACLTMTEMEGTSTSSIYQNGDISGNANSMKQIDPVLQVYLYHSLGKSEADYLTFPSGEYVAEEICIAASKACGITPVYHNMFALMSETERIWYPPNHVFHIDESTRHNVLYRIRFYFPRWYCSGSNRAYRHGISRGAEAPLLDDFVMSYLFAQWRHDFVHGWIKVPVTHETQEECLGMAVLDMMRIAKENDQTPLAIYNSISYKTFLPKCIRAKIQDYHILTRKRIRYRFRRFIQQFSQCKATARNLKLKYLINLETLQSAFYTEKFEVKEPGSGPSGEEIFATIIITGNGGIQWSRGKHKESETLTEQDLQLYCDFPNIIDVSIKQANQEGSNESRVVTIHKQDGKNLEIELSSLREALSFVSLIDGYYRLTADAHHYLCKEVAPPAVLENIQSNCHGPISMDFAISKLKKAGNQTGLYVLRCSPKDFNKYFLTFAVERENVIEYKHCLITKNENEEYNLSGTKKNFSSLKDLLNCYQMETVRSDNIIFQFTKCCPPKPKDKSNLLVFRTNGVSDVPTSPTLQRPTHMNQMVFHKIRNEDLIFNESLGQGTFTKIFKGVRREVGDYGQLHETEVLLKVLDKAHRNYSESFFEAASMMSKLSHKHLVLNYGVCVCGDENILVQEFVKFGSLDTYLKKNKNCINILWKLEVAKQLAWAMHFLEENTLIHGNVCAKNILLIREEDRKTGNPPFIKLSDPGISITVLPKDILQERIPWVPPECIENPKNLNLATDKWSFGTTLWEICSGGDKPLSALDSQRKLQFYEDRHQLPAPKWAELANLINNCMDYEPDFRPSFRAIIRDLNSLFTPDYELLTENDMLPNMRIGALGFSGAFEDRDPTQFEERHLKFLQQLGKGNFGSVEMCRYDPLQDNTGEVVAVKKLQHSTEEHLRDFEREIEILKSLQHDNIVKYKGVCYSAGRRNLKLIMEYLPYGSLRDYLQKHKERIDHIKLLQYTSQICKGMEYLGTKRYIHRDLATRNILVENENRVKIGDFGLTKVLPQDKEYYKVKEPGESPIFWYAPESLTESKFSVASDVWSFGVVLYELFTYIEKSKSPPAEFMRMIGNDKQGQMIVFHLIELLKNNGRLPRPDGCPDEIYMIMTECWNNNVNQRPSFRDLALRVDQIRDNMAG

SMILES | Vd [1] | solubility thermodynamic [2] | clearance [3] | IC50 [4] | logD [5] | GI50 [6] | half-life [7] | clearance [8] | bioavailability [9] | IC50 [10] | IC50 [11] | EC50 [12]
Cc1cc(Nc2nc(N[C@@H](C)c3ncc(F)cn3)ncc2F)n[nH]1 | 0.8 L/kg | > 460 µM | 12 mL/min/kg | 5250 nM | < 2.6 | 230 nM | 0.85 h | 10 µL/min/mg | 100% | – | – | –
C[C@H](Nc1ncc(F)c(Nc2cc(C3CC3)[nH]n2)n1)c1ncc(F)cn1 | – | > 460 µM | – | – | < 2.6 | 250 nM | – | – | – | 3 nM | – | –
COc1cc(Nc2nc(N[C@@H](C)c3ncc(F)cn3)ncc2Cl)n[nH]1 | – | > 460 µM | – | > 30000 nM | < 2.6 | 410 nM | – | – | – | 3 nM | 108 nM | –
C[C@H](Nc1ncc(Cl)c(Nc2cc(C3CC3)[nH]n2)n1)c1ncc(F)cn1 | – | > 460 µM | – | – | < 2.6 | 150 nM | – | – | – | < 3 nM | – | –
Cc1cc(Nc2nc(N[C@@H](C)c3ncc(F)cn3)ncc2C)n[nH]1 | 2.4 L/kg | > 460 µM | 18 mL/min/kg | 8350 nM | < 2.6 | 96 nM | 1.9 h | 25 µL/min/mg | 100% | < 3 nM | 4 nM | –
Cc1cc(Nc2nc(O[C@@H](C)c3ncc(F)cn3)ncc2Cl)n[nH]1 | – | > 460 µM | – | 12700 nM | < 2.6 | 170 nM | – | – | – | – | – | 39000 nM
Cc1cc(Nc2nc(O[C@H](C)c3ncc(F)cn3)ncc2Cl)n[nH]1 | – | > 460 µM | – | > 30000 nM | < 2.6 | > 10000 nM | – | – | – | – | – | –
COc1cc(Nc2nc(N[C@@H](C)c3ncc(F)cn3)ncc2Br)n[nH]1 | – | > 460 µM | – | > 30000 nM | < 2.6 | 590 nM | – | – | – | 4 nM | 108 nM | –
Cc1cc(Nc2nc(N[C@@H](C)c3ncc(F)cn3)ncc2Br)n[nH]1 | – | > 460 µM | – | 4590 nM | < 2.6 | 89 nM | – | – | – | < 3 nM | 10 nM | –
